The text below walks through data of ChEMBL document CHEMBL1201862, “PubChem BioAssay data set” (2004).

Assay in all cases: DTP human tumour cell line panel, 48 h
Test [1] has as its system A549.
Test [2] concerns EKVX.
The test system of test [3] is HCT-15.
In test [4] the test system is HL-60.
The subject of test [5] is HOP-92.
The subject of test [6] is HT-29.
Test [7] has as its system LOX IMVI.
The subject of test [8] is MOLT-4.
The test system of test [9] is Malme-3M.
Test [10] deals with OVCAR-8.
Test [11] deals with RXF 393.
Test [12] relates to SF-295.
The test system of test [13] is SF-539.
Test [14] relates to SK-MEL-5.
Test [15] deals with SN12C.
The test system of test [16] is UACC-257.
The test system of test [17] is UACC-62.
Test [18] deals with UO-31.
Test [19] deals with SK-MEL-2.

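Briefly, cells in 96-well plates were exposed to five compound concentrations for 48 h, and endpoints were estimated by linear interpolation. GI50 marks 50% less growth.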 The source made the active and inactive calls. Rule as the data show it: active = GI50 up to about 1.1 µM and inactive = higher.

Broadly, the GI50 is the concentration at which growth is held to half of that of the control. On to `Cc1cccc(C)c1NC(=O)CCC(=O)/N=C(\N)NC#N`, for which the GI50 was > 100 µM (inactive) in test [1]; > 100 µM (inactive) in test [2]; > 100 µM in test [3]; > 100 µM (inactive) in test [4]; > 100 µM (inactive) in test [5]; > 100 µM (inactive) in [6]. The GI50 in test [7], in test [8], in test [9], in [10], in test [11] and in test [12] was > 100 µM (inactive) each time. In addition, the GI50 in test [13], in test [14], in test [15], in test [16], in test [17] and in test [18] was > 100 µM (inactive) in each case.
For the molecule `O=C1C2C(C(=O)N1c1ccccc1)C1([N+](=O)[O-])C=C3c4ccccc4N(C(=O)c4ccccc4)C32C2C(=O)N(c3ccccc3)C(=O)C21` (stereo not drawn), the GI50 in [1] is > 100 µM (inactive); in test [3], > 100 µM; in test [4], > 100 µM (inactive); in [5], > 100 µM (inactive); in test [6] it was > 100 µM (inactive); in test [7] it was > 100 µM (inactive). For the same molecule, the GI50 was > 100 µM (inactive) in [8]; > 100 µM (inactive) in [9]; > 100 µM (inactive) in [10]; > 100 µM (inactive) in [12]; > 10 µM (inactive) in test [13]; > 100 µM (inactive) in test [19]. The GI50 in [15], in [16], in [17] and in test [18] was > 100 µM (inactive) in each case.
Take `CC1CCCC(C(O)CC2CC(=O)N(c3ccccc3)C(=O)C2)C1=O` (stereo not drawn): the GI50 in test [1], in test [2], in test [4], in test [5], in [6] and in test [7] was > 100 µM (inactive) throughout. The GI50 in [8], in [9], in [10], in test [11], in [12] and in test [13] was > 100 µM (inactive) in each case. The GI50 in test [15], in test [16], in [17] and in test [18] was > 100 µM (inactive) each time.
As to `C\C=C/C=C/C=C/C(=O)O`, the GI50 in test [1] was > 100 µM (inactive); in [2], 67.3 µM (inactive); in test [3] it was > 100 µM; in [4], > 100 µM (inactive); in test [6] it was > 100 µM (inactive); in test [7] it was > 100 µM (inactive). Also, the GI50 in test [8], in test [9], in test [10], in test [11], in [12] and in [13] was > 100 µM (inactive) each time. In addition, the GI50 in test [19], in test [14], in test [15], in test [16], in test [17] and in test [18] was > 100 µM (inactive) throughout.
Turning to `CC1=C(CC2C(=O)N(c3ccccc3)S(=O)(=O)NC2C)C(=O)N(c2ccccc2)S(=O)(=O)N1C` (stereo not drawn), the GI50 in test [1] is > 100 µM (inactive); in test [2] it was > 100 µM (inactive); in test [3], > 100 µM; in test [5] it was > 100 µM (inactive); in test [6] it was > 100 µM (inactive); in test [7], > 100 µM (inactive). Moreover, the GI50 in test [8], in test [9], in test [10], in test [12], in test [13] and in test [19] was > 100 µM (inactive) in each case. Besides, the GI50 in test [14], in test [15], in [17] and in [18] was > 100 µM (inactive) each time.
With `CC1(O)CC2C(CC1SC1CC3C(CC1(C)O)C3(C)C)C2(C)C` (stereo not drawn), the GI50 in [1] was 50.8 µM (inactive); in [2], 32.5 µM (inactive); in test [3] it was 39.1 µM; in test [4] it was 22.9 µM (inactive); in test [5] it was 36.2 µM (inactive); in test [6], 39.6 µM (inactive). The GI50 in [8] was 43.1 µM (inactive); in test [9], 29.6 µM (inactive); in test [10], 41.9 µM (inactive); in test [12] it was 46 µM (inactive); in test [13], > 100 µM (inactive); in test [19], 40.1 µM (inactive). The GI50 was 11.6 µM (inactive) in [14], 36.1 µM (inactive) in test [15], 49 µM (inactive) in test [16] and 24 µM (inactive) in [18].
With `CC(C)N(C(=O)C12C3C4C1C1C2C3C41I)C(C)C` (stereo not drawn), the GI50 in test [1] is > 100 µM (inactive); in [2] it was > 100 µM (inactive); in [4] it was > 100 µM (inactive); in [5], 88.9 µM (inactive); in test [6], > 100 µM (inactive); in [8], > 100 µM (inactive). The GI50 in [9] was > 100 µM (inactive); in test [10] it was > 100 µM (inactive); in test [12] it was > 100 µM (inactive); in test [13], > 10 µM (inactive); in [14], > 100 µM (inactive); in test [15] it was > 100 µM (inactive). The GI50 in test [17] and in test [18] was > 100 µM (inactive) in each case.
Take `Fc1cccc(/C=N/C23CC4CC(CC(C4)C2)C3)c1`: the GI50 in [2] was > 100 µM (inactive); in test [3], > 100 µM; in test [4], > 100 µM (inactive); in test [5] it was > 100 µM (inactive); in test [6] it was > 100 µM (inactive); in test [7], > 100 µM (inactive). Besides, the GI50 in [8], in test [9], in test [10], in test [11], in [12] and in test [13] was > 100 µM (inactive) each time. For the same molecule, the GI50 in test [19], in test [15], in [16], in [17] and in test [18] was > 100 µM (inactive) each time.
For the molecule `COC(=O)C1=C(O)c2cc3c(cc2[C@H](c2cc(OC)c(OC)c(OC)c2)C1)OCO3`, the GI50 in test [1] is 57.5 µM (inactive); in test [3], 25.2 µM; in [4], 14.3 µM (inactive); in test [5] it was 96.8 µM (inactive); in test [6] it was 48.1 µM (inactive); in [7], 30.5 µM (inactive). The GI50 in test [8] was 24.1 µM (inactive); in [9] it was 38.1 µM (inactive); in test [10] it was 51.3 µM (inactive); in test [11], 57.9 µM (inactive); in test [12] it was 37.5 µM (inactive); in [13], > 100 µM (inactive). The GI50 is 20.8 µM (inactive) in test [14]; 54.1 µM (inactive) in test [15]; 34 µM (inactive) in test [16]; 5.74 µM (inactive) in [17]; 3.24 µM (inactive) in [18].
For the molecule `Clc1ccc(OCc2nnc3n2N=C(c2ccccc2)CS3)cc1`, the GI50 was 16.4 µM (inactive) in [1]; 13.8 µM in test [3]; 13 µM (inactive) in test [4]; 20.9 µM (inactive) in test [5]; 16.3 µM (inactive) in test [6]; 17 µM (inactive) in [7]. For the same molecule, the GI50 was 9.68 µM (inactive) in [8]; 17.9 µM (inactive) in [9]; 14.1 µM (inactive) in [10]; 19.3 µM (inactive) in [12]; 18.2 µM (inactive) in test [13]; 18 µM (inactive) in [19]. Moreover, the GI50 is 11.7 µM (inactive) in test [15], 14.9 µM (inactive) in [16], 11.1 µM (inactive) in test [17] and 5.42 µM (inactive) in test [18].
In the case of `N#C/C(=C\c1cc(Br)c(O)c(Br)c1)c1ccccn1`, the GI50 was 59.6 µM (inactive) in test [1]; 26.7 µM (inactive) in test [2]; 41.2 µM in [3]; > 100 µM (inactive) in test [4]; 14.5 µM (inactive) in test [5]; 59 µM (inactive) in test [6]. For the same molecule, the GI50 in test [8] was 32.5 µM (inactive); in test [9], 23.6 µM (inactive); in test [10] it was 94.8 µM (inactive); in test [11], 91.4 µM (inactive); in test [12] it was 16 µM (inactive); in test [13] it was 84.7 µM (inactive). For the same molecule, the GI50 in test [19] is 47.9 µM (inactive); in test [14], 41 µM (inactive); in test [15] it was 46.7 µM (inactive); in test [16], 35.4 µM (inactive); in test [17], 37.1 µM (inactive); in [18], 35.9 µM (inactive).
With `Cc1c(C(=O)/C=C/c2ccccc2)[n+]([O-])c2ccccc2[n+]1[O-]`, the GI50 was 18.4 µM (inactive) in [1]; 14.9 µM (inactive) in test [2]; 13.9 µM (inactive) in test [4]; 11.6 µM (inactive) in [5]; 19.3 µM (inactive) in [6]; 14.5 µM (inactive) in test [7]. Further, the GI50 was 21.3 µM (inactive) in [8]; 17.7 µM (inactive) in [9]; 15 µM (inactive) in test [10]; 2.07 µM (inactive) in test [11]; 16.4 µM (inactive) in [12]; 15.5 µM (inactive) in [13]. Further, the GI50 is 13.8 µM (inactive) in [15], 16.6 µM (inactive) in [16], 15.1 µM (inactive) in test [17] and 20 µM (inactive) in test [18].
